Laboratory results reported in PMC7026418, “The kinase polypharmacology landscape of clinical PARP inhibitors” (Scientific Reports, 2020).

Key:
PIM1 = PIM1 (Homo sapiens, UniProt P11309); assay: KinomeScan active site-directed competition binding at […]; […] catalytic inhibition at […] (n = […])
HIPK1 = HIPK1 (Homo sapiens, UniProt Q86Z02); assay: biochemical; conditions: read-out: Niraparib

Row | Compound | KinomeScan active site-directed competition binding at 10 μM; 27% catalytic inhi (PIM1) | inhibition at 1 µM (HIPK1) [%]
1 | CNCc1ccc(-c2[nH]c3cc(F)cc4c3c2CCNC4=O)cc1 [Rucaparib] | recover most of the previously known off-targets of rucaparib, including the most potent known interactions with PIM1 and DYRK1A | –
2 | NC(=O)c1cccc2cn(-c3ccc([C@@H]4CCCNC4)cc3)nc12 [Niraparib] | – | 40
